# Laboratory results as given in patent US20250073255A1, “USE OF FA-TYPE LIPID COMPOUNDS IN PREPARATION OF NUCLEIC ACID DELIVERY REAGENT AND RELATED PRODUCT” (BEIJING BAISHIKANG PHARMACEUTICAL TECHNOLOGY (BSJPHARMA) …, priority 2021, published 2025).
# Test system: C57BL/6 male mice
# Assay: In vivo delivery study of lipid nucleic acid mixture (oral gavage, RT-qPCR of PGY-sRNA-26 in tissues)
# Design: species or system mouse
# Details: for overall delivery efficacy: delivering nucleic acids into each tissue and blood tested: 100 μg lipid:10 nmol PGY-sRNA-26, all tissues and blood tested; for oral delivery of single-stranded sRNA nucleic acids into mouse heart tissue: vs free uptake group; for oral delivery of single-stranded sRNA nucleic acids into mouse intestinal tissue: intestine
# Method in brief: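 Lipid (100 μg) and 10 nmol 3'-methylated single-stranded PGY-sRNA-26 were heated at 90 °C for 15 min, then given by oral gavage to mice fasted 12 h. Controls were saline and free sRNA. Blood and tissues were taken at 12 h, and levels were measured by stem-loop RT-qPCR relative to U6.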
# [1] = 100 μg lipid:10 nmol PGY-sRNA-26, sampled after 12 hours
compound,measurement,setting,value
CC/C=C/CC1C(=O)CCC1CC(=O)OC (stereo not drawn) [Lipid 501],overall delivery efficacy: delivering nucleic acids into each tissue and blood tested,,best delivery efficacy
same,oral delivery of single-stranded sRNA nucleic acids into mouse blood,[1],can effectively orally deliver
same,oral delivery of single-stranded sRNA nucleic acids into mouse brain tissue,[1],can effectively orally deliver
same,oral delivery of single-stranded sRNA nucleic acids into mouse heart tissue,[1],can effectively orally deliver
same,oral delivery of single-stranded sRNA nucleic acids into mouse intestinal tissue,[1],can effectively orally deliver
same,oral delivery of single-stranded sRNA nucleic acids into mouse kidney tissue,[1],can effectively orally deliver
same,oral delivery of single-stranded sRNA nucleic acids into mouse liver tissue,[1],can effectively orally deliver
same,oral delivery of single-stranded sRNA nucleic acids into mouse lung tissue,[1],can effectively orally deliver
same,oral delivery of single-stranded sRNA nucleic acids into mouse spleen tissue,[1],can effectively orally deliver
same,oral delivery of single-stranded sRNA nucleic acids into mouse stomach tissue,[1],can effectively orally deliver
"O=C(O)CC(=O)C(=O)O [Lipid 623, 2-oxobutanedioic acid]",oral delivery of single-stranded sRNA nucleic acids into mouse blood,[1],can effectively orally deliver
same,oral delivery of single-stranded sRNA nucleic acids into mouse brain tissue,[1],can effectively orally deliver
same,oral delivery of single-stranded sRNA nucleic acids into mouse femur,[1],can effectively orally deliver
same,oral delivery of single-stranded sRNA nucleic acids into mouse heart tissue,[1],can effectively orally deliver
same,oral delivery of single-stranded sRNA nucleic acids into mouse intestinal tissue,[1],can effectively orally deliver
same,oral delivery of single-stranded sRNA nucleic acids into mouse kidney tissue,[1],can effectively orally deliver
same,oral delivery of single-stranded sRNA nucleic acids into mouse liver tissue,[1],can effectively orally deliver
same,oral delivery of single-stranded sRNA nucleic acids into mouse spleen tissue,[1],can effectively orally deliver
same,oral delivery of single-stranded sRNA nucleic acids into mouse stomach tissue,[1],can effectively orally deliver
CCCCC(N)=O [Lipid 610],oral delivery of single-stranded sRNA nucleic acids into mouse femur,[1],can effectively orally deliver
same,oral delivery of single-stranded sRNA nucleic acids into mouse kidney tissue,[1],can effectively orally deliver
same,oral delivery of single-stranded sRNA nucleic acids into mouse lung tissue,[1],can effectively orally deliver
same,oral delivery of single-stranded sRNA nucleic acids into mouse spleen tissue,[1],can effectively orally deliver
same,oral delivery of single-stranded sRNA nucleic acids into mouse stomach tissue,[1],can effectively orally deliver
CC/C=C/CCO [Lipid 526],overall delivery efficacy: delivering nucleic acids into each tissue and blood tested,,best delivery efficacy
same,oral delivery of single-stranded sRNA nucleic acids into mouse blood,[1],can effectively orally deliver
same,oral delivery of single-stranded sRNA nucleic acids into mouse brain tissue,[1],can effectively orally deliver
same,oral delivery of single-stranded sRNA nucleic acids into mouse femur,[1],can effectively orally deliver
same,oral delivery of single-stranded sRNA nucleic acids into mouse heart tissue,[1],can effectively orally deliver
same,oral delivery of single-stranded sRNA nucleic acids into mouse intestinal tissue,[1],can effectively orally deliver
same,oral delivery of single-stranded sRNA nucleic acids into mouse kidney tissue,[1],can effectively orally deliver
same,oral delivery of single-stranded sRNA nucleic acids into mouse liver tissue,[1],can effectively orally deliver
same,oral delivery of single-stranded sRNA nucleic acids into mouse lung tissue,[1],can effectively orally deliver
same,oral delivery of single-stranded sRNA nucleic acids into mouse spleen tissue,[1],can effectively orally deliver
same,oral delivery of single-stranded sRNA nucleic acids into mouse stomach tissue,[1],can effectively orally deliver
"N[C@@H](CCCC(=O)O)C(=O)O [Lipid 595, (2S)-2-aminohexanedioic acid]",overall delivery efficacy: delivering nucleic acids into each tissue and blood tested,,best delivery efficacy
same,oral delivery of single-stranded sRNA nucleic acids into mouse blood,[1],can effectively orally deliver
same,oral delivery of single-stranded sRNA nucleic acids into mouse brain tissue,[1],can effectively orally deliver
same,oral delivery of single-stranded sRNA nucleic acids into mouse femur,[1],can effectively orally deliver
same,oral delivery of single-stranded sRNA nucleic acids into mouse heart tissue,[1],can effectively orally deliver
same,oral delivery of single-stranded sRNA nucleic acids into mouse intestinal tissue,[1],can effectively orally deliver
same,oral delivery of single-stranded sRNA nucleic acids into mouse kidney tissue,[1],can effectively orally deliver
same,oral delivery of single-stranded sRNA nucleic acids into mouse liver tissue,[1],can effectively orally deliver
same,oral delivery of single-stranded sRNA nucleic acids into mouse lung tissue,[1],can effectively orally deliver
same,oral delivery of single-stranded sRNA nucleic acids into mouse spleen tissue,[1],can effectively orally deliver
same,oral delivery of single-stranded sRNA nucleic acids into mouse stomach tissue,[1],can effectively orally deliver
"CC(=O)C1CCOC1=O (stereo not drawn) [Lipid 612, 3-acetyloxolan-2-one]",oral delivery of single-stranded sRNA nucleic acids into mouse femur,[1],can effectively orally deliver
same,oral delivery of single-stranded sRNA nucleic acids into mouse intestinal tissue,[1],can effectively orally deliver
same,oral delivery of single-stranded sRNA nucleic acids into mouse liver tissue,[1],can effectively orally deliver
same,oral delivery of single-stranded sRNA nucleic acids into mouse stomach tissue,[1],can effectively orally deliver
"CCCCCC(=O)OCCCC [Lipid 613, butyl hexanoate]",overall delivery efficacy: delivering nucleic acids into each tissue and blood tested,,best delivery efficacy
same,oral delivery of single-stranded sRNA nucleic acids into mouse blood,[1],can effectively orally deliver
same,oral delivery of single-stranded sRNA nucleic acids into mouse brain tissue,[1],can effectively orally deliver
same,oral delivery of single-stranded sRNA nucleic acids into mouse femur,[1],can effectively orally deliver
same,oral delivery of single-stranded sRNA nucleic acids into mouse heart tissue,[1],can effectively orally deliver
same,oral delivery of single-stranded sRNA nucleic acids into mouse intestinal tissue,[1],can effectively orally deliver
same,oral delivery of single-stranded sRNA nucleic acids into mouse kidney tissue,[1],can effectively orally deliver
same,oral delivery of single-stranded sRNA nucleic acids into mouse liver tissue,[1],can effectively orally deliver
same,oral delivery of single-stranded sRNA nucleic acids into mouse lung tissue,[1],can effectively orally deliver
same,oral delivery of single-stranded sRNA nucleic acids into mouse spleen tissue,[1],can effectively orally deliver
same,oral delivery of single-stranded sRNA nucleic acids into mouse stomach tissue,[1],can effectively orally deliver
"C=C(C)CCOC(=O)CCCCCCCCCCCCCCCCCCCCC [Lipid 815, 3-methylbut-3-enyl docosanoate]",oral delivery of single-stranded sRNA nucleic acids into mouse blood,[1],can effectively orally deliver
same,oral delivery of single-stranded sRNA nucleic acids into mouse brain tissue,[1],can effectively orally deliver
same,oral delivery of single-stranded sRNA nucleic acids into mouse femur,[1],can effectively orally deliver
same,oral delivery of single-stranded sRNA nucleic acids into mouse heart tissue,[1],can effectively orally deliver
same,oral delivery of single-stranded sRNA nucleic acids into mouse intestinal tissue,[1],can effectively orally deliver
same,oral delivery of single-stranded sRNA nucleic acids into mouse kidney tissue,[1],can effectively orally deliver
same,oral delivery of single-stranded sRNA nucleic acids into mouse liver tissue,[1],can effectively orally deliver
same,oral delivery of single-stranded sRNA nucleic acids into mouse lung tissue,[1],can effectively orally deliver
same,oral delivery of single-stranded sRNA nucleic acids into mouse pancreatic tissue,"100 μg lipid:10 nmol PGY-sRNA-26, sampled after 12 hours, pancreas",can effectively orally deliver
same,oral delivery of single-stranded sRNA nucleic acids into mouse spleen tissue,[1],can effectively orally deliver
same,oral delivery of single-stranded sRNA nucleic acids into mouse stomach tissue,[1],can effectively orally deliver
